From ChEMBL document CHEMBL3507680, “University of Dundee, Gates Library screen for HepG2 cell viability”

Experiment: Human HepG2 cell viability assay in 384 well format
Assay type: toxicity, cell-based
Design: dose 125 nL, time 70.5 hour; concentration not given beside the values
Conditions: HepG2 cells, read-out: Inhibition

Row | Compound | cytotoxicity at 70.5 h
1 | Cc1cncc(C(=O)N2C[C@@H](C(=O)O)[C@H](C(C)C)C2)c1 | 28.4%
2 | CCS(=O)(=O)NCc1cccnc1N1CCCC(O)C1 (configuration not stated) | -26.9%
3 | O=C(O)c1cnc(N2CCC(c3nccn3CC3CC3)CC2)c(Cl)c1 | -8.03%
4 | O=C(c1cnco1)N1CCC(Cc2cccc3ncccc23)CC1 | 20.4%
5 | CCNc1ncc(C(=O)NC2COC3(CCCC3)C2)cn1 (configuration not stated) | -3.75%
6 | COCc1ccccc1C(=O)NCC(c1c(F)cccc1F)N(C)C (configuration not stated) | 0.326%
7 | O=C(Nc1ccccc1)C1CN(Cc2ccsc2)CC12CCOCC2 (configuration not stated) | -18.9%
8 | CNS(=O)(=O)c1ccc(CCC(=O)NCc2cccc(OC)c2)cc1 | -0.152%
9 | CC(C)CCN1CCCC12Cc1ccccc1CNC2=O (configuration not stated) | -7.7%
10 | CC1CCCN(S(=O)(=O)NCCN/C(O)=C2/N=CC=CC2=O)C1 (configuration not stated) | 0.429%
11 | CCc1nnsc1C(=O)N1CCN(CC(O)CC)CC1 (configuration not stated) | -10.3%
12 | CC(NCc1ccc(-c2ccc(F)cc2)o1)c1nnc2n1CCC2 (configuration not stated) | -9.83%
13 | CCn1nc(C(=O)N2CCNCC2C(=O)Nc2ccc(C)nc2)cc1C (configuration not stated) | 3.8%
14 | O=C(NCC1CC1)C1CN(Cc2cccs2)Cc2ccnn2C1 (configuration not stated) | -13.4%
15 | O=C(c1cscn1)N1CC[C@]2(C[C@@H](OCCN3CCCC3)CO2)C1 | -6.54%
16 | CCn1cnnc1CNC(=O)NCC(C(C)C)N1CCOCC1 (configuration not stated) | -13%
17 | O=C1NCCO[C@H]2CN(C(=O)Cc3ccco3)CC[C@@H]12 | -5.72%
18 | CC(Cn1cccn1)NCc1ccc(Cl)s1 (configuration not stated) | -4.9%
19 | O=C(NCc1ccco1)[C@H]1CC[C@@H]2[C@@H](CCN2Cc2nccs2)O1 | -4.65%
20 | c1ccc(Cc2nnc([C@H]3CCN(C4CCCCC4)C3)o2)cc1 | 1.09%
21 | O=C(c1ccc(F)cc1)N1C[C@@H]2CN(c3ncccn3)C[C@@H]2C1 | -6.82%
22 | Cc1cc(SCC(N)=O)nc(-c2ccc(F)cc2)n1 | -9.61%
23 | COc1cccc(C(=O)N2CCC3(CCC(=O)N(C(C)C)C3)CC2)c1C | -4.66%

Row | Compound | cytotoxicity at 70.5 h
24 | O=C(Cc1ccc2c(c1)CCC2)NCCNc1ncccn1 | 10.9%
25 | CC(CC(=O)N1CCC(c2nnc3n2CCC3)CC1)n1cccc1 (configuration not stated) | 10.7%
26 | CC(CN1CCOCC1)OC(=O)c1ccccc1Cl (configuration not stated) | -19.2%
27 | CC(=O)NCC(=O)NC1CCc2c(ccc(=O)n2CC2CC2)C1 (configuration not stated) | -1.98%
28 | CC(C)N1CCC(CC(=O)N(C)C(C)c2cncs2)CC1 (configuration not stated) | -15.3%
29 | COc1cc2c(cc1CNC(=O)C(C)n1ccnc1C(C)C)OCCO2 (configuration not stated) | -3.89%
30 | Cc1cnn(C2CCCN(C(=O)c3sccc3-n3cnnn3)C2)c1 (configuration not stated) | -2.63%
31 | Cn1ccnc1CN1CCC(c2ccnc(-c3cccc(O)c3)c2)C1 (configuration not stated) | -1.18%
32 | Cn1ccnc1CN1CCN(Cc2ccc(C#N)cc2F)CC1 | -1.66%
33 | CS(=O)(=O)CCC(=O)N(Cc1c(F)cccc1F)C1CCCC1 | 21%
34 | COCC(=O)N1CCCC(C(=O)c2cnn(-c3ccc(F)cc3)c2N)C1 (configuration not stated) | 9.29%
35 | CCNC(c1ccc(C)cc1)c1cccnc1 (configuration not stated) | 0.38%
36 | CCc1nc(CNc2ccc(F)c(F)c2)no1 | -7.5%
37 | Cc1cc(N2CCCC(OC(=O)CCc3cnn(C)c3)C2)nc(C)n1 (configuration not stated) | -11.2%
38 | Cc1ccc(CN2CCC3(CC2)CC(N2CCN(C)CC2)CO3)s1 (configuration not stated) | -9.14%
39 | O=C(Nc1cnccn1)[C@H]1COC[C@H]2CN(C3CCCC3)C[C@H]21 | -2.04%
40 | Cc1nnc(NC(=O)NCc2ccc(N3CCN(C)CC3)nc2)s1 | -24.8%
41 | c1cncc(COC[C@@H]2CCC[C@@]23CNCCO3)c1 | 8.38%
42 | CC(C)(C)n1ncc(C(=O)NCCCC(N)=O)c1C(F)(F)F | -9.38%
43 | COCCN(C)CCN1CC2(CCN(C3CCCOC3)CC2)OC1=O (configuration not stated) | 3.4%
44 | CC(NC(=O)CSCC(=O)Nc1ccccc1)c1ccccc1 (configuration not stated) | -1.19%
45 | O=C(C1CCCCC1)N1CCC(c2n[nH]c3nccnc23)CC1 | -2.95%
46 | CCc1cc(NCC(N)=O)nc(N2CCCCC2)n1 | -8.82%

Row | Compound | cytotoxicity at 70.5 h
47 | COc1cccc(-c2n[nH]cc2CNC2CCN(C(C)C)CC2)c1 | -0.27%
48 | O=C(NC1CC1)C1CCCN(c2cccc(C(F)(F)F)n2)C1 (configuration not stated) | -5.01%
49 | O=C(c1cncc2ccccc12)N1CCC[C@@H]1CO | -11.6%
50 | O=C(Nc1cnn(CCN2CCOCC2)c1)c1ccccn1 | -4.34%
51 | CC(C(=O)NC1(C#N)CCCCC1)N1CCc2c(ncn2C)C1 (configuration not stated) | -3.36%
52 | COC(=O)C1CCN(C(=O)c2cccc(NS(C)(=O)=O)c2C)CC1 | -7.56%
53 | O=C1CC(N(C(=O)c2ccc(Oc3ccccc3)cc2)C2CC2)C(=O)N1 (configuration not stated) | -4.82%
54 | Cc1ccc(NC(=O)CNc2ccn(CC(N)=O)n2)c(Cl)c1 | -7.52%
55 | CCCc1cncnc1N1CCCC2(CCC(=O)N(C3CCCC3)C2)C1 (configuration not stated) | -9.78%
56 | Cn1cc(CN2CCCC3(CCN(C(=O)c4cnccn4)C3)C2)cn1 (configuration not stated) | 11.1%
57 | CCOc1cc(C(=O)N2CCCC(c3nc(C)c(C)s3)C2)ccn1 (configuration not stated) | 3.48%
58 | CCc1[nH]c(C2(N)CCCCC2)nc(=O)c1C | -4.64%
59 | CN(CCc1ccccc1)c1cnn(C)c(=O)c1Br | -15.5%
60 | CC(C)c1ccccc1OCCNC(=O)N1CCC2(CC1)OCCO2 | -2.15%
61 | Cc1c(C(=O)N2CCCC(n3cccn3)C2)nnn1-c1ccccc1 (configuration not stated) | -2.31%
62 | Cn1ccnc1CN1C(=O)CO[C@H]2CN(Cc3ccc(F)c(F)c3)C[C@H]21 | 8.11%
63 | Cc1ccc(C(=O)N(CC2CCCO2)c2ccncc2)o1 (configuration not stated) | -8.12%
64 | CCOC(=O)N(C)CC(=O)NCCc1coc(-c2ccc(C)cc2)n1 | -8.2%
65 | N#Cc1ccccc1N1CCCN(CC(=O)Nc2ccccc2Cl)CC1 | -6.48%
66 | Cc1cc(C2CCN(C(=O)c3cnn(C)c3)CC2)ccn1 | -5.33%
67 | O=C(c1cnccn1)N1CCC(Cc2cnc3[nH]ccc3c2)CC1 | -2.92%
68 | CC1CCCN(C(=O)NCC(F)F)C1 (configuration not stated) | -4.81%
69 | Cc1cnc(N2CC(C(=O)N3CCOCC3)C3(CCOCC3)C2)nc1 (configuration not stated) | -3.59%

Row | Compound | cytotoxicity at 70.5 h
70 | CCc1ccc(C2c3nc[nH]c3CCN2Cc2nccn2CC)nc1 (configuration not stated) | 33.1%
71 | N#CC1(NC(=O)c2nccc3ccccc23)CCC2(CC1)OCCO2 | -25.4%
72 | O=C(NCCCN1CCCC1)c1n[nH]c(=O)c2ccccc12 | -9.07%
73 | CN(Cc1ccsc1)C(=O)COC(=O)c1cc(Cl)c[nH]1 | -2.89%
74 | COC[C@@H]1CCCN1C(=O)c1cc(-c2ccc(OC)cc2)n[nH]1 | -7.57%
75 | CSc1ccc(CN2CCn3nc(CNC(C)=O)cc3C2)cc1 | -28.8%
76 | Cc1cnn(CCNCc2nc(COc3ccc(F)cc3)no2)c1 | 6.22%
77 | N#Cc1ccc(N2CCC3(CCC(=O)N3Cc3ccncc3)CC2)nc1 | -6.82%
78 | CNS(=O)(=O)c1ccc(CNC(=O)N(C)CC(C)C)cc1 | -94.7%
79 | CNC(=O)N1C[C@H]2C[C@H](C(=O)NCc3cccnc3)[C@@H](C1)O2 | -4.91%
80 | Cc1cc(C(F)(F)F)cc(N2C[C@@H](CN3CCOCC3)[C@@H](CO)C2)n1 | -16.2%
81 | CN(C)C(=O)COC[C@H]1CC[C@@H]2[C@@H](CCN2Cc2ccccn2)O1 | -7.44%
82 | CN(C)C(=O)CN1CCO[C@H]2CN(Cc3cccc(F)c3)C[C@H]21 | -8.07%
83 | CCCc1noc(CCC(=O)N2CCCC2c2cccc(OC)c2)n1 (configuration not stated) | -8.65%
84 | CCC(=O)N1CCC2(COCc3c(C)nc(NCc4ccco4)nc32)C1 (configuration not stated) | -6.57%
85 | COc1ccccc1CN1C[C@@H]2COC[C@]2(COCc2ccncc2)C1 | -10.2%
86 | O=C(N1CCCO1)[C@]12COC[C@H]1CN(Cc1cccnc1)C2 | -7.03%
87 | Cc1noc(C(C)N2CCN(CCC(=O)N3CCCCC3)CC2)n1 (configuration not stated) | -8.82%
88 | CC(=O)N1[C@H](CN(C)C)C[C@@H]2CN(C(=O)c3ccsc3)CC[C@@H]21 | -12.2%
89 | CCn1nc(CC(C)C)cc1C(=O)N1CC[C@@H](O)C1 | -3.86%
90 | CC(NC(=O)c1ccc(CS(C)(=O)=O)o1)c1ccc(F)c(F)c1 (configuration not stated) | -3.42%
91 | CN(Cc1ccc(F)cc1)CC1(O)CCN(C(=O)c2ccn(C)n2)C1 (configuration not stated) | -6.54%
92 | O=C(c1ccc(C(F)(F)F)cc1)C1CCCN(C(=O)Cn2cnnn2)C1 (configuration not stated) | -15.3%

Row | Compound | cytotoxicity at 70.5 h
93 | CC(C)(C)CCN1CCN(c2snc(Cl)c2C#N)CC1 | 4.63%
94 | CCN(CC)C(=O)CNC(=O)N1CCC(c2ccccc2)C1 (configuration not stated) | -6.54%
95 | COC(=O)[C@@H]1C[C@H](NC(=O)c2cc(=O)[nH]c3ccc(C)cc23)CN1C | -13%
96 | Cc1nn(C)cc1NC(=O)CC1CCN(CCc2ccccc2)CC1 | -7.48%
97 | CN(c1ccc(C(=O)NCCCN2CCCC2)c(Cl)c1)S(C)(=O)=O | 17.4%
98 | Cc1cncc(C(=O)N2CCNCC2C(=O)Nc2ccc(C)nc2)c1 (configuration not stated) | -3.64%
99 | Fc1ccccc1CC1CCN(Cc2nccs2)CC1 | -3.29%
100 | CCCS(=O)(=O)N1CCN(CCOC)c2nc(C)ccc2C1 | -8.9%
101 | Cc1cnc(C)c(N2CCN(Cc3ccc(C)c(C)c3)CC2)n1 | 3.81%
102 | CC(C)c1nc(C2CCCN(c3cnc4ccccc4n3)C2)no1 (configuration not stated) | -5.55%
103 | Cc1cc(N2CCC3(CCC(=O)N(CC4CC4)C3)CC2)ncn1 | -7.85%
104 | CC(C)n1nc2c(cc1=O)CN(c1nc3ccccc3s1)CC2 | 3.31%
105 | O=C(O)c1nnn(-c2ccc(C(F)(F)F)cc2)c1-c1ccncc1 | -26.2%
106 | CN(C)C(=O)NC1COC2(CCN(Cc3ccc(N(C)C)cc3)CC2)C1 (configuration not stated) | -2.99%
107 | CCCN1Cc2cc(Br)ccc2OCC1=O | 28.2%
108 | Cc1cnn(CC2CN(c3ncnc4ccsc34)CCO2)c1 (configuration not stated) | 16%
109 | CN(CCCOc1ccccc1Cl)C(=O)CN1CCCCCC1=O | -0.255%
110 | CCc1nn(C)c(Cl)c1CN1C[C@@H](NC(=O)N(C)C)[C@H](C(C)C)C1 | -5.68%
111 | CCCNC(=O)CCC(=O)n1nc(C)c2ccccc21 | 1.02%
112 | CCN(Cc1ccc2c(c1)OCCO2)S(=O)(=O)N(C)C(C)C | -7.62%
